How the values were obtained:
U14 tumor cells = assay: Inhibition of U14 tumor implanted in mice; details: for inhibition (%) / quotient of noumenal tumor (%): U14 implanted mice; for quotient of noumenal tumor (%): ±SD
Procedure: Thus, the inhibition of tumor cells by the said oligosaccharides was tested using implanted tumor cells in mice. • (1) Tests of the said Oligosaccharides and their Sulfates on Mice in which Tumor Cells were Implanted. A. Materials and Methods
Cell line for the tests: U14 cell line was procured from The Tumor Research Group, The Institute of Chinese Herbal Medicine, Chinese Academy of Traditional Chinese Medicine;
Animals for the tests: 70 Kunming male mice (weight 20±2 g, grade II) were obtained from the Experimental Animal Center, the Chinese Academy of Medicine.
Medicine for control test: Cyclophosphamide was obtained from Shanghai Hualian Pharmaceutical Ltd, permit number 012034, 1995, Shanghai.
Mice grouping and administration: • a. U14 cell line group: physical saline, IP, 0.2 mL/d×10 d • b. Group treated with hexasaccharide 18: IP 10 mg/kg×10 d, 0.2 mL/d • c. Group treated with octyl hexaoside 18′: IP 10 mg/kg×10 d, 0.2 mL/d • d. Group treated with heptasaccharide 24: IP 10 mg/kg×10 d, 0.2 mL/d • e. Group treated with sulfated hexaose 25: IP 10 mg/kg×10 d, 0.2 mL/d • f. Group treated with cyclophosphamide: IP, 70 mg/kg×10 d, 0.1 mL/d (Cyclophosphamide was given to the mice by intraperitoneal at 24 h after the planting. After 48 h of the 1st injection, the 2nd injection was given, and after 48 h of the 2nd injection, the last injection was given). Test: U14 cells obtained from U14 mouse were diluted and counted. Each mouse was implanted with 0.2 ml (corresponding to 4×10^6 cells). A total of sixty mice were implanted. B. Test Results
1 h post administration of the last dose, the mice were weighed. The right-upper arm of the mice was cut after sterilization, and the tumor section was removed. The quotient of noumenal tumor (%) and inhibition (%) were calculated.

spleen B lymphocytes = assay: Immune enhancing activity: 3H-thymidine incorporation of spleen B lymphocytes from treated C57 mice, stimulated with Bal/bc lymphocytes; assay type: in vivo; details: 0.1 mL/d × 8d
Procedure: a. Medicine and reagents: synthetic lentinan hexaose 18, synthetic lentinan methyl α-heptaoside 24, synthetic lentinan octyl hexaoside 18′, lentinan (brand: Tian Di Xin) is produced by Nanjing Zhenzhong Biotech Ltd.
b. Animals: C57 mice were provided by Animal Center, Academia Sinica, weighing 20±2 g.
c. grouping and administration: the 50 mice were randomly allocated to 10 groups according to weight
The mice were injected IP with different doses of lentinan oligosaccharides listed above. […] Then the spleen B lymphocytes were extracted. The following experiment was then performed with the extracted lymphocytes: the 10^6 B cells were transferred to 96-well “U” shaped bottom plate, then the lymphocytes of Bal/bc mice were used as antigens to stimulate the B cells. After 4 days, ^3H-Thymidine was intermingled with the system and the B cells were collected 18 hours after. The isotopic incorporation was assessed by scintillation counting. Compared with positive control and minus control, the immuno-enhanced effect of these oligosaccharides was evaluated.

[1] = test system: leukocyte infiltrate in air pouch; assay: Thioglycollate-induced air pouch inflammation in mice; assay type: in vivo, mouse; details: dose 25 mg/kg subq.
Procedure: Test method: Subcutaneous air pouches were formed on the backs of mice by injecting 5 mL of sterile air below the skin of a shaved area between the scapulae of an anaesthetized mouse. After 2 days post-injection the pouch was reinflated by the injection of 2.5 mL of air. Inflammation was induced on day 6 by injecting directly into the pouch 1.0 mL of 56 mg/mL thioglycollate or 1.0 mL of saline as a control. Approximately 17-20 h after thioglycollate injection, the animals were killed, and the cellular contents of the pouch retrieved by the injection of 2.5 mL of PBS/5% FCS. The sulfated octyl hexaoside 25 was tested for its ability to inhibit the inflammatory reaction by being injected subq. in a separate site immediately following administration of the thioglycollate. Prednisolone was used as a control anti-inflammatory drug, and was injected subq. at 25 mg/kg. The total cellular contents of each pouch were determined using a Coulter Counter and different leukocyte subpopulations were assessed by immunofluorescent flow cytometry.

[2] = IP 10 mg/kg, relative to control
[3] = IP 10 mg/kg×10 d (dose of 17 not given)

Structure (SMILES) | inhibition (%) (U14 tumor cells; cyclophosphamide IP 70 mg/kg) | quotient of noumenal tumor (%) (U14 tumor cells; cyclophosphamide IP 70 mg/kg) | weight (U14 tumor cells; mouse weight 1 h after last dose, cyclophosphamide IP 70 mg/kg) [g] | 3H-TdR incorporation (spleen B lymphocytes; IP 1 mg/kg, control 3394) | enhancement rate (%) (spleen B lymphocytes; IP 1 mg/kg, control = 100) | 3H-TdR incorporation (spleen B lymphocytes; IP 10 mg/kg, control 3045) | enhancement rate (%) (spleen B lymphocytes; [2]) | inhibition (%) (U14 tumor cells; [3]) | quotient of noumenal tumor (%) (U14 tumor cells; [3]) | leukocyte infiltrate in air pouch in comparison to the control [1] [%]
O=P1(N(CCCl)CCCl)NCCCO1 (stereo not shown) [cyclophosphamide, Cyclophosphamide, reference compound] | 43.89 | 1.86 ± 0.73 | 28.00 ± 1.78 |  |  |  |  |  |  | 
COC1OC(CO)[C@@H](O)C(O[C@H]2OC(CO[C@@H]3OC(CO)[C@@H](O)C(O)C3O)[C@@H](O)C(O[C@@H]3OC(CO)[C@@H](O)C(O[C@H]4OC(CO[C@@H]5OC(CO)[C@@H](O)C(O)C5O)[C@@H](O)C(O[C@@H]5OC(CO)[C@@H](O)C(O)C5O)C4O)C3O)C2O)C1O (stereo partly shown) [compound 24] |  |  |  | 5546 | 163 | 5087 | 167 | 41.21 | 2.54 ± 1.89 | 
C[C@]12C=CC(=O)C=C1CC[C@@H]1[C@@H]2[C@@H](O)C[C@@]2(C)[C@H]1CC[C@]2(O)C(=O)CO [prednisolone, Prednisolone] |  |  |  |  |  |  |  |  |  | 56±14
CCCCCCCCOC1OC(COC2OC(CO)C(O)C(O)C2O)C(O)C(OC2OC(CO)C(O)C(OC3OC(COC4OC(CO)C(O)C(O)C4O)[C@@H](O)C(OC4OC(CO)C(O)C(O)C4O)C3O)C2O)C1O (stereo partly shown) [18′] |  |  |  | 5547 | 163 | 6082 | 200 | 58.43 | 1.54 ± 0.56 | 
OCC1OC(OCC2OC(O)C(O)C(OC3OC(CO)C(O)C(OC4OC(COC5OC(CO)C(O)C(O)C5O)[C@@H](O)C(OC5OC(CO)C(O)C(O)C5O)C4O)C3O)C2O)C(O)C(O)C1O (stereo partly shown) [compound 18] |  |  |  | 5497 | 162 | 6084 | 200 | 29.41 | 2.63 ± 0.90 | 
